# In PubChem BioAssay AID1996:
# Conditions: buffer; pH 7.4; 200.0 µM
row,Compound,solubility kinetic
1,O=[N+]([O-])c1cccnc1Oc1ccc(OCc2ccccc2)cc1,< 0.3 µg/mL
2,Cc1cc(C)nc(NC(=S)Nc2ccc(F)cc2F)c1,1.7 µg/mL
3,COc1cc(NC(=O)c2ccccc2[N+](=O)[O-])ccc1NC(=O)c1cc2ccccc2o1,0.7 µg/mL
4,Cc1ccc(C(C)c2c(C)c([N+](=O)[O-])cc(C)c2[N+](=O)[O-])cn1 (centres undefined),13.4 µg/mL
5,Cc1ccc2oc(C(=O)NCC(c3ccco3)N(C)C)c(C)c2c1 (centres undefined),> 49 µg/mL
6,COc1ccc(N/C(=N/c2nc(C)cc(C)n2)NC(=O)c2ccccc2)cc1,0.3 µg/mL
7,O=C(c1ccc(Oc2ccc(Cl)cc2)c([N+](=O)[O-])c1)N1CCCC1,41.1 µg/mL
8,Cc1ccc(Sc2cnccc2C#N)cc1,15.4 µg/mL
9,CN1C(=O)NC(c2cccc([N+](=O)[O-])c2)C2=C1CCCC2=O (centres undefined),> 45.2 µg/mL
10,C[C@@H]1CN(Cc2nc(-c3cnccn3)no2)C[C@H](C)O1,30.8 µg/mL
11,COc1cccc(NC(=S)N(C)C2CCN(C)CC2)c1,> 44 µg/mL
12,C=C(C)CNC(=O)c1ccc2nc(Cc3ccc(OC)cc3)oc2c1,40.5 µg/mL
13,COc1ccc(Cl)cc1Nc1nc(N)c2ccccc2n1.Cl,5.3 µg/mL
14,c1ccc(CNc2cncnc2)cc1,26.4 µg/mL
15,O=C(CCN1C(=O)c2ccccc2C1=O)NCc1ccccc1,> 46.3 µg/mL
16,CC(C)OC(=O)/C(C#N)=C\c1cccnc1,28.2 µg/mL
17,O=c1cc(-c2ccccc2)nc(SCc2ccccc2F)[nH]1,< 0.3 µg/mL
18,O=C(OCC(=O)c1ccc[nH]1)c1ccc(F)c(S(=O)(=O)N2CCOCC2)c1,7.8 µg/mL
19,O=C(CSc1nc(-c2ccccc2)cs1)NCCCN1CCCC1=O,> 56.3 µg/mL
20,C/C(CC(=O)Nc1ccccn1)=N\NC(=O)c1cnccn1,> 44.7 µg/mL
21,CC(=O)c1cn(-c2ccc(Cl)cc2)c(=O)[nH]c1=O,33.7 µg/mL
22,O=C(/C=C/c1ccccc1)OCc1cncs1,32.2 µg/mL
23,Cc1noc(C)c1CC(=O)Nc1ccc2c(c1)OCO2,> 41.1 µg/mL
24,O=C(Nc1cccc(Cl)c1)N1CCCCCC1,5.1 µg/mL
25,O=C(NCc1ccc(F)cc1)c1ccc[nH]1,> 32.7 µg/mL
26,O=C(O)C1c2ccccc2C(=O)N(Cc2ccc(F)cc2)C1c1ccncc1 (centres undefined),> 56.5 µg/mL
27,CCCCCN1C(C)=CC(=C(C#N)C#N)C=C1C,3.3 µg/mL

# Second part, the molecule after the results:
row,solubility kinetic,Compound
1,> 41.1 µg/mL,O=C(O)CN1C(=O)NC2(CCCc3ccccc32)C1=O (centres undefined)
2,> 45.3 µg/mL,Cc1nc(S/C(C(=O)O)=C2/C(=O)Nc3ccccc32)n[nH]1
3,> 31.9 µg/mL,NC(=O)CNC(=O)c1cccc(Cl)c1
4,36.6 µg/mL,COc1ccc(N2CCN(C(=O)c3cccnc3)CC2)c([N+](=O)[O-])c1
5,30.6 µg/mL,COc1cccc(C(=O)Nc2ccccc2OC(F)(F)F)c1
6,> 35.4 µg/mL,Nc1c(Cl)ncnc1NCc1cccnc1
7,3.8 µg/mL,O=C(CCn1cnc2ccccc2c1=O)Nc1cccc(Cl)c1Cl
8,> 36.8 µg/mL,COc1ccccc1NC(=O)c1cc(C)oc1C
9,> 47.3 µg/mL,O=C(c1cc2cc(C(F)(F)F)ccc2s1)N1CCOCC1
10,1.4 µg/mL,O=[N+]([O-])c1ccc(Nc2nccc(Cl)n2)cc1
11,2.2 µg/mL,CC(C)(C)NC(=O)COc1ccc2oc3c(c2c1)CCCC3
12,24.8 µg/mL,Cc1cc(C)cc(NCc2ccncc2)c1
13,> 45.2 µg/mL,COCCNC(=O)Cn1nc(-c2ccc(C)cc2)ccc1=O
14,54.7 µg/mL,O=C(CSC(=S)N1CCOCC1)Nc1ncc2c(n1)CCCC2=O
15,44.1 µg/mL,CN1CCN(/C=C(\C#N)S(=O)(=O)c2ccc(Cl)cc2)CC1
16,47.2 µg/mL,Cc1ccccc1OCC(=O)OCC(=O)Nc1ccc(Cl)cn1

row,solubility kinetic,Compound
1,11.1 µg/mL,CN(c1ccccc1)S(=O)(=O)c1cccc(C(=O)OCC(=O)NCc2ccccc2)c1
2,> 42 µg/mL,Cc1cc(NC(=O)CCCn2cnc([N+](=O)[O-])n2)no1
3,3.2 µg/mL,O=C(Nc1ccc2c(c1)OCCO2)c1cccc(Br)c1
4,18.2 µg/mL,CC(=O)N/C(=C\c1ccccc1)C(=O)OCC(=O)c1c(N)n(C)c(=O)n(C)c1=O
5,> 37.3 µg/mL,CCN(C(=S)NC(=O)C1CC1)c1ccccc1
6,> 33.9 µg/mL,Cc1ccc(CNC(=O)c2cccnc2)cc1
7,22.4 µg/mL,c1ccc(CNc2nc(-c3cccnc3)cs2)cc1
8,> 44.3 µg/mL,O=S(=O)(NC(=S)c1ccccc1)c1ccc(F)cc1
9,> 45.3 µg/mL,COc1ccc(CCNC(=O)c2ccc(=O)[nH]c2)cc1OC
10,26.9 µg/mL,COc1ccccc1N1CCN(c2ccc(S(=O)(=O)N3CCN(C)CC3)cn2)CC1
11,9.4 µg/mL,CC(C#N)Sc1ccc(S(=O)(=O)N2CCCCC2)cn1 (centres undefined)
12,> 41.1 µg/mL,CCOc1ncccc1C(=O)NCc1ccccc1F
13,20.6 µg/mL,O=C(CCN1C(=O)S/C(=C\c2ccccc2)C1=O)N1CCCCC1
14,26.9 µg/mL,N#CSC(c1ccccc1)c1nc2ccccc2[nH]c1=O (centres undefined)
15,> 49.7 µg/mL,COC(=O)c1[nH]c2cc(C)ccc2c1NC(=O)CN1CCOCC1
16,< 0.4 µg/mL,COc1ccc(-c2c(C#N)sc(C(N)=O)c2-c2ccc(OC)cc2)cc1
